Data: patent US7750003B2, “Compounds-943” (AstraZeneca AB, priority 2006, dated 2010)

The compounds below were run against recombinant mTOR (FLAG-tagged, residues 1362-2549) (Homo sapiens, UniProt P42345) (assay: In vitro mTOR kinase assay (Test (a), AlphaScreen)). Conditions: ATP 20 μM, read-out: Test (a): IC50 versus mTOR kinase.
Chain of recombinant mTOR (FLAG-tagged, residues 1362-2549) (P42345 1362-2549): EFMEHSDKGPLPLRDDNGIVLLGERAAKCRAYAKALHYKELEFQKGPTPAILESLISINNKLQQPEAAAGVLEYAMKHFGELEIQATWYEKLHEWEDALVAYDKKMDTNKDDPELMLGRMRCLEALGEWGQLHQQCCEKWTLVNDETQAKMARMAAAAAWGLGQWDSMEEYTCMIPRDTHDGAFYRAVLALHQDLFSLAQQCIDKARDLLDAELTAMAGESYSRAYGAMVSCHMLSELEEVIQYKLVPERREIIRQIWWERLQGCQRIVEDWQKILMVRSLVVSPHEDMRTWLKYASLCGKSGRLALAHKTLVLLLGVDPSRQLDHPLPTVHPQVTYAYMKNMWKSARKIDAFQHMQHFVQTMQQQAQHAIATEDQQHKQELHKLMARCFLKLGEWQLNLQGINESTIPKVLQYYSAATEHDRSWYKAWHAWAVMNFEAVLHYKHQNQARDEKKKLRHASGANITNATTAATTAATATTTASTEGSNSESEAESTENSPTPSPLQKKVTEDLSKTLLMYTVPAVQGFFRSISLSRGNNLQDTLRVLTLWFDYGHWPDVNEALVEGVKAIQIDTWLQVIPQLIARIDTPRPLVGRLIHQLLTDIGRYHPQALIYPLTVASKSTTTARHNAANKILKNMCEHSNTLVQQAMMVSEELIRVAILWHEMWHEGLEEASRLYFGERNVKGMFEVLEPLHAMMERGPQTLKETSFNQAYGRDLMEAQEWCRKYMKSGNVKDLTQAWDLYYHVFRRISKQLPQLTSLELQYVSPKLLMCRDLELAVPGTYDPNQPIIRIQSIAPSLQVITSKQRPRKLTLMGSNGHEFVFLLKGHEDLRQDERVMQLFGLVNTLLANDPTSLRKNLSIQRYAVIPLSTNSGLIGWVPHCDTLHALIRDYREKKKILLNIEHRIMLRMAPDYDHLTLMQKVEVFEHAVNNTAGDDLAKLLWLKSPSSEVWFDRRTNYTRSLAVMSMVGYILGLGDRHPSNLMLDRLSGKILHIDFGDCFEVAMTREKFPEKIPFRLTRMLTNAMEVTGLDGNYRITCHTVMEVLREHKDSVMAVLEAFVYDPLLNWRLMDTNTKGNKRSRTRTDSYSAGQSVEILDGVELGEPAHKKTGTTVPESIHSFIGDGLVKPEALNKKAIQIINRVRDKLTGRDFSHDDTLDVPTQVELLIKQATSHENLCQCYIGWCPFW
Type: biochemical
Procedure, shortened: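 AlphaScreen read-out: a phospho-T389 p70 S6K antibody on acceptor beads captures the phosphorylated biotin-peptide on donor beads, with signal loss indicating inhibition.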
`C[C@H]1COCCN1c1cc(CS(=O)(=O)c2ccccc2C(F)(F)F)nc(-c2ccc(NC(=O)NC3CC3)cc2)n1` [Example 43f, 3-cyclopropyl-1-[4-[4-[(3S)-3-methylmorpholin-4-yl]-6-[[2-(trifluoromethyl)phenyl]sulfonylmethyl]pyrimidin-2-yl]phenyl]urea] gave an IC50 of 110 nM.
In the case of `C[C@H]1COCCN1c1cc(CS(=O)(=O)CC(N)=O)nc(-c2ccc(NC(=O)NC3CC3)cc2)n1` [Example 43h, 2-[[2-[4-(cyclopropylcarbamoylamino)phenyl]-6-[(3S)-3-methylmorpholin-4-yl]pyrimidin-4-yl]methylsulfonyl]acetamide], the IC50 is reported as 7.1 nM.
For `Cc1csc(S(=O)(=O)Cc2cc(N3CCOC[C@@H]3C)nc(-c3ccc(NC(=O)NC4CC4)cc3)n2)n1` [Example 43i, 3-cyclopropyl-1-[4-[4-[(3S)-3-methylmorpholin-4-yl]-6-[(4-methyl-1,3-thiazol-2-yl)sulfonylmethyl]pyrimidin-2-yl]phenyl]urea], the IC50 was 58 nM.
With `CC(=O)NCCS(=O)(=O)Cc1cc(N2CCOC[C@@H]2C)nc(-c2ccc(NC(=O)NC3CC3)cc2)n1` [Example 43j, N-[2-[[2-[4-(cyclopropylcarbamoylamino)phenyl]-6-[(3S)-3-methylmorpholin-4-yl]pyrimidin-4-yl]methylsulfonyl]ethyl]acetamide] the IC50 was 1800 nM.
`CN(CCO)C(=O)Nc1ccc(-c2nc(CS(C)(=O)=O)cc(N3CCOCC3)n2)cc1` [Example 45, 1-(2-Hydroxyethyl)-1-methyl-3-[4-[4-(methylsulfonylmethyl)-6-morpholin-4-yl-pyrimidin-2-yl]phenyl]urea] gave an IC50 of 660 nM.
`CS(=O)(=O)Cc1cc(N2CCOCC2)nc(-c2ccc(NC(=O)N3CCCCC3)cc2)n1` [Example 45a, N-[4-[4-(methylsulfonylmethyl)-6-morpholin-4-yl-pyrimidin-2-yl]phenyl]piperidine-1-carboxamide] gave an IC50 of 630 nM.
Work on `C[C@H]1COCCN1c1cc(CS(C)(=O)=O)nc(-c2ccc(NC(=O)N3CCC(N(C)C)CC3)cc2)n1` [Example 45ab, 4-dimethylamino-N-[4-[4-[(3S)-3-methylmorpholin-4-yl]-6-(methylsulfonylmethyl)pyrimidin-2-yl]phenyl]piperidine-1-carboxamide] yielded an IC50 of 390 nM.
`CC(C)CNC(=O)Nc1ccc(-c2nc(CS(C)(=O)=O)cc(N3CCOCC3)n2)cc1` [Example 45b, 1-(2-methylpropyl)-3-[4-[4-(methylsulfonylmethyl)-6-morpholin-4-yl-pyrimidin-2-yl]phenyl]urea] showed an IC50 of 120 nM.
`COCCCNC(=O)Nc1ccc(-c2nc(CS(C)(=O)=O)cc(N3CCOCC3)n2)cc1` [Example 45c, 1-(3-methoxypropyl)-3-[4-[4-(methylsulfonylmethyl)-6-morpholin-4-yl-pyrimidin-2-yl]phenyl]urea] showed an IC50 of 82 nM.
In the case of `CN(C)CCCCNC(=O)Nc1ccc(-c2nc(CS(C)(=O)=O)cc(N3CCOCC3)n2)cc1` [Example 45d, 1-(4-dimethylaminobutyl)-3-[4-[4-(methylsulfonylmethyl)-6-morpholin-4-yl-pyrimidin-2-yl]phenyl]urea], the IC50 is reported as 560 nM.
For `CS(=O)(=O)Cc1cc(N2CCOCC2)nc(-c2ccc(NC(=O)NCCN3CCNC3=O)cc2)n1` [Example 45e, 1-[4-[4-(methylsulfonylmethyl)-6-morpholin-4-yl-pyrimidin-2-yl]phenyl]-3-[2-(2-oxoimidazolidin-1-yl)ethyl]urea], the IC50 was 560 nM.
Work on `CS(=O)(=O)Cc1cc(N2CCOCC2)nc(-c2ccc(NC(=O)N3CCCC3)cc2)n1` [Example 45f, N-[4-[4-(methylsulfonylmethyl)-6-morpholin-4-yl-pyrimidin-2-yl]phenyl]pyrrolidine-1-carboxamide] yielded an IC50 of 1600 nM.
`CS(=O)(=O)Cc1cc(N2CCOCC2)nc(-c2ccc(NC(=O)N3CCOCC3)cc2)n1` [Example 45g, N-[4-[4-(methylsulfonylmethyl)-6-morpholin-4-yl-pyrimidin-2-yl]phenyl]morpholine-4-carboxamide] was tested, and the IC50 was 41 nM.
With `CS(=O)(=O)Cc1cc(N2CCOCC2)nc(-c2ccc(NC(=O)N3CCC(O)CC3)cc2)n1` [Example 45h, 4-hydroxy-N-[4-[4-(methylsulfonylmethyl)-6-morpholin-4-yl-pyrimidin-2-yl]phenyl]piperidine-1-carboxamide] the IC50 was 140 nM.
For `CN(C)CCNC(=O)Nc1ccc(-c2nc(CS(C)(=O)=O)cc(N3CCOCC3)n2)cc1` [Example 45j, 1-(2-dimethylaminoethyl)-3-[4-[4-(methylsulfonylmethyl)-6-morpholin-4-yl-pyrimidin-2-yl]phenyl]urea], the IC50 was 720 nM.
`CS(=O)(=O)Cc1cc(N2CCOCC2)nc(-c2ccc(NC(=O)NCCO)cc2)n1` [Example 45k, 3-(2-hydroxyethyl)-1-[4-[4-(methylsulfonylmethyl)-6-morpholin-4-yl-pyrimidin-2-yl]phenyl]urea] showed an IC50 of 49 nM.
`CCN(C)C(=O)Nc1ccc(-c2nc(CS(C)(=O)=O)cc(N3CCOCC3)n2)cc1` [Example 45l, 1-ethyl-1-methyl-3-[4-[4-(methylsulfonylmethyl)-6-morpholin-4-yl-pyrimidin-2-yl]phenyl]urea] showed an IC50 of 1100 nM.
Work on `CS(=O)(=O)Cc1cc(N2CCOCC2)nc(-c2ccc(NC(=O)N3CCCC(O)C3)cc2)n1` (stereo not shown) [Example 45m, 3-hydroxy-N-[4-[4-(methylsulfonylmethyl)-6-morpholin-4-yl-pyrimidin-2-yl]phenyl]piperidine-1-carboxamide] yielded an IC50 of 170 nM.
In the case of `CS(=O)(=O)Cc1cc(N2CCOCC2)nc(-c2ccc(NC(=O)N3CCC(S(C)(=O)=O)C3)cc2)n1` (stereo not shown) [Example 45n, 3-methylsulfonyl-N-[4-[4-(methylsulfonylmethyl)-6-morpholin-4-yl-pyrimidin-2-yl]phenyl]pyrrolidine-1-carboxamide], the IC50 is reported as 630 nM.
In the case of `CS(=O)(=O)Cc1cc(N2CCOCC2)nc(-c2ccc(NC(=O)NCCN3CCOCC3)cc2)n1` [Example 45o, 1-[4-[4-(methylsulfonylmethyl)-6-morpholin-4-yl-pyrimidin-2-yl]phenyl]-3-(2-morpholin-4-ylethyl)urea], the IC50 is reported as 900 nM.
`CC(C)(C)CNC(=O)Nc1ccc(-c2nc(CS(C)(=O)=O)cc(N3CCOCC3)n2)cc1` [Example 45p, 1-(2,2-dimethylpropyl)-3-[4-[4-(methylsulfonylmethyl)-6-morpholin-4-yl-pyrimidin-2-yl]phenyl]urea] was tested, and the IC50 was 920 nM.
`CS(=O)(=O)Cc1cc(N2CCOCC2)nc(-c2ccc(NC(=O)NCCCO)cc2)n1` [Example 45q, 3-(3-hydroxypropyl)-1-[4-[4-(methylsulfonylmethyl)-6-morpholin-4-yl-pyrimidin-2-yl]phenyl]urea] was tested, and the IC50 was 32 nM.
For `CN(Cc1ccccc1)C(=O)Nc1ccc(-c2nc(CS(C)(=O)=O)cc(N3CCOCC3)n2)cc1` [Example 45r, 1-benzyl-1-methyl-3-[4-[4-(methylsulfonylmethyl)-6-morpholin-4-yl-pyrimidin-2-yl]phenyl]urea], the IC50 was 410 nM.
In the case of `CCOCCNC(=O)Nc1ccc(-c2nc(CS(C)(=O)=O)cc(N3CCOCC3)n2)cc1` [Example 45s, 1-(2-ethoxyethyl)-3-[4-[4-(methylsulfonylmethyl)-6-morpholin-4-yl-pyrimidin-2-yl]phenyl]urea], the IC50 is reported as 300 nM.
`CC(CO)NC(=O)Nc1ccc(-c2nc(CS(C)(=O)=O)cc(N3CCOCC3)n2)cc1` (stereo not shown) [Example 45t, 1-(1-hydroxypropan-2-yl)-3-[4-[4-(methylsulfonylmethyl)-6-morpholin-4-yl-pyrimidin-2-yl]phenyl]urea] was tested, and the IC50 was 82 nM.
